# Experimental data reported in patent publication US20240252697A1, “INACTIVATION OF PATHOGENS IN EX VIVO BLOOD PRODUCTS IN STORAGE BAGS USING VISIBLE LIGHT” (priority 2015, published 2024).
# Marks after values point to notes of the source that are not given here.
# Test system: feline calicivirus (FCV)
# Test: 405 nm light inactivation of FCV suspended in supplemented minimal medium, counted by plaque assay on FEA cells
# Assay type: cell-based, feline calicivirus vaccine strain F9
smiles,measurement,setting,value
Cc1cc2nc3c(=O)[nH]c(=O)nc-3n(C[C@H](O)[C@H](O)[C@H](O)CO)c2cc1C [Riboflavin],Log10 reduction/inactivation of FCV,"FCV in MM plus components at DMEM concentrations, after",1.3 Log10
same,Exposed Viral Population (±St Dev),"FCV in minimal media plus photosensitive components at DMEM concentrations, 155 mW cm^−2, mean count n = 3 ± SD",3.77 ± 0.61
same,Log10 Reduction,"FCV in minimal media plus photosensitive components, 155 mW cm^−2, exposed vs non-exposed control, asterisk = P ≤ 0.05",1.28* Log10
